Laboratory results from US20090024021A1, “Methods and Systems for Using Transcranial Magnetic Stimulation and Functional Brain Mapping for Examining Cortical Sensitivity, Brain Communication, and Effects of Medication” (priority 2002, published 2009).
“Also recorded” adds a separate entry of the source.

Assays:
[1] = tested on: motor corticospinal pathways; conditions: volunteers or patients with complex partial seizures; cited from earlier work
left prefrontal cortex = assay: Interleaved TMS/phMRI (BOLD fMRI) with TMS over prefrontal cortex; assay type: in vivo, human; conditions: for Voxels, effect of LTG (between day) / Z-score, effect of LTG (between day): Prefrontal Cortex Stimulation, LTG-Placebo
Protocol: Study design: We performed a randomized, double-blind, crossover trial involving two visits at least one week apart (FIG. 8). […] Serum LTG levels, RMTs, and interleaved TMS/phMRI images during both motor and then prefrontal TMS were then gathered for each subject. One week later they received LTG or placebo again, followed by identical RMT and interleaved TMS/phMRI studies.
Combined TMS and MRI: Immediately following RMT determination, interleaved TMS/phMRI acquisitions were performed in a Picker EDGE 1.5 T MR scanner with actively shielded magnet and high-performance gradients (27 mT/m, 72 T/m/sec) using a typical gradient echo, echo planar imaging (EPI) fMRI sequence (tip angle=90, TR=3 sec, FOV 27.0 cm, fifteen 7 mm thick slices, 1 mm gap). TMS was delivered using a Dantec MagPro with a special nonferromagnetic TMS coil of figure-8 design with an 8-meter cable (Dantec Medical A/S, Skovlunde, Denmark) and a room set up identical to prior TMS/fMRI studies from our group. TMS pulses and the fMRI sequence were interleaved as described before^21. Each cycle, illustrated in FIG. 9, consisted of six 21-sec sub-cycles—four Test and two task (100% RMT stimulation and 120% RMT stimulation). During each sub-cycle, the scanner acquired seven sets of 15 transverse images. During the task sub-cycles the TMS was triggered 100 ms after every […] image acquisition to produce a TMS stimulation rate of 1 Hz. The entire TMS/fMRI sequence lasted 882 sec (14.7 min).
On each visit, immediately after the Motor Cortex MRI study, subjects were removed from the scanner and the TMS device was moved to position it over the left prefrontal cortex. The left prefrontal cortex stimulation site was defined as a location 5-cm rostral and in a parasagittal plane from the site of maximal APB stimulation. Subjects then reentered the scanner for the prefrontal TMS scan, which was identical to the Motor study described above except for the TMS coil location.
Individual fMRI Data Analyses: MR scans were transferred into ANALYZE format and then further processed on Sun workstations (Sun Microsystems, Palo Alto, Calif.). Scans were checked using MEDx3.3 (Sensor Systems Inc, Sterling, Va.) for movement across runs, and then were coregistered to a mean image using automatic image registration. […] After correction of motion, we used a delayed boxcar model, employed a high-pass filter to remove signal drift, cardiac and respiratory effects, and other low frequency artifacts. Then, we spatially transformed each subject's data into the Talairach Atlas (input voxel dimensions, 2.1×2.1×8 mm, to output voxel dimensions, 4×4×4 mm), smoothed (4×2 mm) the data and generated z map with the Statistical Parametric Mapping (SPM) 96 module in MEDx3.3. We assumed an uncorrected F threshold UF P>0.99 to preserve as many voxels as possible for the cluster analysis.
Group fMRI Data Analyses: All subject's unthresholded z maps were combined based on comparison of condition (TMS vs Rest), intensity (100% RMT-TMS vs 120% RMT-TMS), visit (LTG vs Placebo). The combined group z maps were thresholded using z≧3.09 (p≦0.001) and cluster statistical weight (spatial extent threshold) of p<0.05. We used either paired or unpaired t-tests in MEDx3.3 for all comparisons of interest and both areas of stimulation.
Magnitude of BOLD time course response: To compare the magnitudes of BOLD signal changes, two types of data were recorded. The different maps of LTG and placebo were used to make a mask of left motor cortex (82 voxels) and a mask of left hippocampus (19 voxels) (FIGS. 11A and 11B bottom panels). The masks used to define location were taken as an index of relative peak intensity above noise. According to the masks' Talairach coordinates, the mean signal intensity of the highest six contiguous voxels (two in each slice) in each subject was extracted from motor cortex or hippocampus with SPM plotting in MEDx.

For Nc1nnc(-c2cccc(Cl)c2Cl)c(N)n1 [LTG, Lamotrigine], which “resting motor threshold (RMT)” value [1] is on record?
Its value is “significantly increased”.

What about the “number of active voxels in hippocampus, compared with placebo” value (left prefrontal cortex; 100% RMT minus rest over prefrontal cortex, left hippocampus, 8 subjects, Wilcoxon p=0.04) of the same compound?
The value was “significantly more; also recorded: significantly increased”.

What about the “Z-score, region of activation” value (left prefrontal cortex; LTG day, within day, n = 8, 100% RMT-Rest, Left Hippocampus, Talairach −24,−8,−24) of the same compound?
Its value is 3.53.

What about the “Z-score, region of activation” value (left prefrontal cortex; LTG day, within day, n = 8, 100% RMT-Rest, Left cingulated gyrus, Talairach −8,−8,28) of the same compound?
Its value is 4.08.

What about the “Z-score, region of activation” value (left prefrontal cortex; LTG day, within day, n = 8, 100% RMT-Rest, Left middle frontal gyrus (BA 6), Talairach −32,4,60) of the same compound?
Its value is 4.04.

And the “Z-score, region of activation” value (left prefrontal cortex; LTG day, within day, n = 8, 100% RMT-Rest, Right hippocampus, Amygdala, Talairach 20,−8,−16)?
Its value is 3.66.

And the “Z-score, region of activation” value (left prefrontal cortex; LTG day, within day, n = 8, 100% RMT-Rest, Right insula (BA 13), Talairach 52,−28,20)?
Its value is 4.26.

What about the “Z-score, region of activation” value (left prefrontal cortex; LTG day, within day, n = 8, 100% RMT-Rest, Right middle frontal gyrus, Talairach 40,48,16) of the same compound?
Its value is 3.96.

And the “Z-score, region of activation” value (left prefrontal cortex; LTG day, within day, n = 8, 100% RMT-Rest, Right postcentral gyrus (BA 3), Talairach 52,−16,40)?
Its value is 3.18.

And the “Z-score, region of activation” value (left prefrontal cortex; LTG day, within day, n = 8, 100% RMT-Rest, Right precentral gyrus, Talairach 36,−4,28)?
Its value is 4.02.

What about the Region of activation (left prefrontal cortex; LTG day, within day, n = 8, 120% RMT-100%) of the same compound?
Its Region of activation is “No activity”.

And the “Z-score, region of activation” value (left prefrontal cortex; LTG day, within day, n = 8, 120% RMT-Rest, Left cingulate gyrus, Talairach −8,4,36)?
Its value is 3.98.

And the “Z-score, region of activation” value (left prefrontal cortex; LTG day, within day, n = 8, 120% RMT-Rest, Left medial frontal gyrus (BA 6), Talairach −48,44,−4)?
Its value is 4.15.

And the “Z-score, region of activation” value (left prefrontal cortex; LTG day, within day, n = 8, 120% RMT-Rest, Left postcentral gyrus (BA 2), Talairach −56,−24,36)?
Its value is 4.12.

And the “Z-score, region of activation” value (left prefrontal cortex; LTG day, within day, n = 8, 120% RMT-Rest, Left superior temporal gyrus, Talairach −60,4,−4)?
The value was 4.14.

What about the “Z-score, region of activation” value (left prefrontal cortex; LTG day, within day, n = 8, 120% RMT-Rest, Right precentral gyrus, Talairach 52,−8,44) of the same compound?
Its value is 4.31.

What about the “Z-score, region of activation” value (left prefrontal cortex; LTG day, within day, n = 8, 120% RMT-Rest, Right superior temporal gyrus, Talairach 56,−12,8) of the same compound?
Its value is 4.53.

And the “Voxels, effect of LTG (between day)” value (left prefrontal cortex; Gyrus frontal medius, Right)?
The value was 35.

And the “Z-score, effect of LTG (between day)” value (left prefrontal cortex; Gyrus frontal medius, Right, Talairach 30,25,41, p < .01)?
The value was 2.83.

And the “Voxels, effect of LTG (between day)” value (left prefrontal cortex; Hippocampus, Left)?
The value was 19.

And the “Z-score, effect of LTG (between day)” value (left prefrontal cortex; Hippocampus, Left, Talairach −25,−11,−25, p < .05)?
Its value is 2.26.

What about the “Voxels, effect of LTG (between day)” value (left prefrontal cortex; Insula, Right) of the same compound?
Its value is 57.

What about the “Z-score, effect of LTG (between day)” value (left prefrontal cortex; Insula, Right, Talairach 39,13,1, p < .01) of the same compound?
The value was 2.83.

And the “Voxels, effect of LTG (between day)” value (left prefrontal cortex; Postcentral gyrus, Right)?
Its value is 59.

And the “Z-score, effect of LTG (between day)” value (left prefrontal cortex; Postcentral gyrus, Right, Talairach 53,−32,40, p < .01)?
The value was 2.83.

And the “Voxels, effect of LTG (between day)” value (left prefrontal cortex; Temporal lobe, Left)?
The value was 112.

What about the “Z-score, effect of LTG (between day)” value (left prefrontal cortex; Temporal lobe, Left, Talairach −43,15,−25, p < .001) of the same compound?
Its value is 3.78.

And the “brain activity in the hippocampus and the orbital frontal gyrus, compared to placebo” value (left prefrontal cortex; formal between-day analysis, 100% RMT prefrontal stimulation vs rest, 8 subjects)?
The value was “increased brain activity; also recorded: increases this activity”.

What about the “% BOLD signal change in left hippocampus, LTG vs placebo, entire time series” value (left prefrontal cortex; prefrontal TMS, 8 subjects, ANOVA F=1.12, p=0.326) of the same compound?
Its value is “failed to show significant differences”.

What about the “% BOLD change in left hippocampus compared with placebo, TMS phase” value (left prefrontal cortex; prefrontal TMS, time points 14-17, 8 subjects, t=−2.69, p=0.009) of the same compound?
The value was “significantly increased”.
